Like-named read-outs stand apart in the source and are kept apart here.
How the values were obtained:
[1] = molecular target: T1, human recombinant HDAC1 (Homo sapiens, UniProt Q13547); experiment: HDAC1 inhibition, fluorometric method (Enzo Fluorometric Drug Discovery Assay Kit); type: biochemical; conditions: read-out: Inhibitory activity IC50 on HDAC1
T1 construct: purchased Enzo Life Sciences, Inc
Description: The inhibitory activities of the synthesized compounds were determined against CK2 and HDAC1 and the IC50 values are collected in Table 1. The activity towards human recombinant HDAC1 was tested using a fluorometric method. CK2 inhibitory activity was determined by a radiometric method, using a short peptide ([…]) as a substrate.
15 µL of HDAC1 (0.4 µg/well) or HDAC6 (0.5 µg/well) were incubated at 37 °C for 30 minutes with 10 µL of inhibitor diluted in 5% DMSO and 25 µL of fluorogenic substrate (0.05 µL/well of 5 mM solution). Reactions were stopped with the developer and trichostatin A, diluted in buffer without BSA, and the plate was incubated at 30 °C for 45 min, followed by measuring the fluorescence (Ex. 360 nm, Em. 450 nm, Fluoroskan, Thermo Scientific).

[2] = molecular target: T2, human recombinant CK2α (Homo sapiens, UniProt P68400); experiment: CK2 inhibition, radiometric method with peptide substrate […]; type: biochemical; conditions: radiometric method, 20 µM ATP; read-out: Inhibitory activity IC50 on CK2
T2 construct: GST; made in house; host or cells: bacteria
T2 sequence (P68400 whole entry): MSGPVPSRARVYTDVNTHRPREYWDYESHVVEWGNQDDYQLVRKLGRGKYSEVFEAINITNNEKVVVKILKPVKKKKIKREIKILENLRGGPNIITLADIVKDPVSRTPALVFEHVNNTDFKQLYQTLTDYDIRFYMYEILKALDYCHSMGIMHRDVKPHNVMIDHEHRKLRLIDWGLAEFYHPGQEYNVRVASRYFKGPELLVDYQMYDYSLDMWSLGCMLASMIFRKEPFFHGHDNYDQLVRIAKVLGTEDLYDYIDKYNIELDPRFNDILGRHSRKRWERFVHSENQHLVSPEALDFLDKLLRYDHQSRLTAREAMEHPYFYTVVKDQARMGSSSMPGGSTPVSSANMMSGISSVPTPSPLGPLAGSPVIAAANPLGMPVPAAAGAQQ
Description: The activity towards human recombinant HDAC1 was tested using a fluorometric method. CK2 inhibitory activity was determined by a radiometric method, using a short peptide ([…]) as a substrate.
Recombinant human protein kinase GST-CK2 was produced in bacteria and purified as described elsewhere. […] The reaction buffer contained 20 µM [γ-32P] ATP (specific radioactivity 300–1000 cpm/pmol), 15 mM Mg^2+, 20 mM Tris–HCl pH 7.5, and 6 mM 2-mercaptoethanol. 10 µL of the assay mixture was spotted onto a square (1 cm/1 cm) of Whatman P81 paper and allowed to dry. Each square was immersed in cold 0.5% phosphoric acid, and washed three times during 10 min, allowed to dry and transferred into a vessel containing Opti-Phase liquid (scintillation solution) and radioactivity was quantified using a scintillation counter (MicroBeta, Perkin Elmer) by Cerenkov counting. All experiments were performed in triplicate. IC50 values were calculated using GraphPad Prism (version 4.0) software.

[3] = tested on: HL-60/adr (doxorubicin-resistant, MRP-1 overexpression); experiment: Cytotoxicity, trypan blue exclusion assay, 24 h; type: cell-based; conditions: Homo sapiens, HL60/ADR
From the text: (§1) Taking into consideration the high abundance of CK2 kinase in leukemia and lymphomas, the ability of selected CK2-HDAC dual inhibitors to circumvent MDR was investigated in human leukemia cells of HL-60 line and its doxorubicin-resistant (HL-60/adr, MRP-1 overexpression) and vincristine-resistant (HL-60/vinc, P-gp overexpression) sublines.
(§2) Statistical significance was set at P ≤ 0.05.

[4] = tested on: HL-60/vinc (vincristine-resistant, P-gp overexpression); experiment: Cytotoxicity, trypan blue exclusion assay, 24 h; type: cell-based; conditions: Homo sapiens, HL60/vinc
From the text: as §1, §2

[5] = tested on: leukemia cells of HL-60 line; experiment: Cytotoxicity, trypan blue exclusion assay, 24 h; type: cell-based; conditions: Homo sapiens
From the text: as §1, §2

[6] = tested on: Jurkat T-leukemia cells; experiment: Cell cycle analysis, PI staining, FACS; type: cell-based, human; conditions: 30 µM, 24 h
Description: To reveal potential mechanisms of cell death induction, selected CK2-HDAC inhibitors were tested in a PI staining assay. […] However, this effect was masked for high doses of DMAT-hydroxamate derivatives (30 µM) due to their strong proapoptotic activity, leading to appearance of > 80% cells in pre-G1 phase (apoptotic). Thus, lower concentrations of 11b–d (2 µM and 5 µM) had to be addressed in order to observe their inhibitory effect on cell cycling. […] As G1/S cell arrest is considered a typical feature of HDAC inhibitors, including SAHA [79], the observed phenomenon is yet another confirmation of HDAC targeting by these novel dual inhibitors in cell culture.
Cell cycle of the analyzed cells was assessed according to protocol described by Walker et al.. After drug treatment, 2 × 10^6 cells were collected, pelleted by spinning at 1,000 rpm, 4 °C for five minutes, resuspended in 1 mL of cold PBS and fixed by adding drop by drop 4 mL of −20 °C absolute ethanol. On the next day, fixed cells were centrifuged again and cell pellets were resuspended in 1 mL of PBS. Then 100 µL of 200 µg/mL DNase-free, RNase A (Invitrogen, USA) was added to cell suspension and incubated at 37 °C for 30 minutes. After this 100 µL of 1 mg/mL propidium iodide was added to samples, which were incubated at room temperature for 5–10 min and then analyzed on FACScan flow cytometer (Becton Dickinson, USA). Cell cycle analysis was carried out using the Cytomation Summit Software v3.1 (Cytomation Inc., USA).

[7] = tested on: Jurkat T-leukemia cells; experiment: Cytotoxicity, trypan blue exclusion assay, 24 h; conditions: Homo sapiens
Description: (§3) Walter Berger, Institute of Cancer Research, Vienna Medical University. Human embryonal kidney cells of HEK293 line were obtained from cell culture collection of R.E. Kavetsky Institute of Experimental Pathology, Oncology and Radiobiology, National Academy of Sciences of Ukraine (Kyiv, Ukraine).
(§4) Cells were seeded (5 × 10^5/mL for leukemia cells and 1 × 10^5/mL for carcinoma cells) into 24-well tissue culture plates (Greiner Bio-one, Frickenhausen, Germany) and were permitted to adhere and grow for 24 h before the experiment. Short-term (24 h) cytotoxic effect of antitumor drugs was studied under the Evolution 300 Trino microscope (Delta Optical, Nowe Osiny, Poland) after cell staining with trypan blue dye (0.1%).
(§5) Final concentration of DMSO in cell culture was 0.5% or less.
(§6) All experiments were performed in triplicate and repeated three times. Statistical analysis of data was conducted in GraphPad Prism 7.0 Software (GraphPad Software, Inc.) using Student’s t test. Statistical significance was set at P ≤ 0.05. Evaluation of LC50 values of each compound was done by built-in functions of GraphPad Prism (non-linear regression, curve fit, [Inhibitor] vs. normalized response - Variable slope).

[8] = tested on: breast adenocarcinoma cells of MCF-7 line; experiment: Cytotoxicity, trypan blue exclusion assay, 24 h; conditions: Homo sapiens
Description: as §3, §4, §5, §6

[9] = tested on: HCT-116 colon carcinoma cells; experiment: Cytotoxicity, trypan blue exclusion assay, 24 h; conditions: Homo sapiens
Description: as §3, §4, §5, §6

[10] = Table 2, trypan blue, 24 h, M ± SD, read-out: LC50 Values of Compounds for Cell Line, HL-60/adr
[11] = supplement Table 4S, M±SD, read-out: LC50 values of compounds for cell line, HL-60/adr
[12] = Table 2, trypan blue, 24 h, M ± SD, read-out: LC50 Values of Compounds for Cell Line, HL-60/vinc
[13] = supplement Table 4S, M±SD, read-out: LC50 values of compounds for cell line, HL-60/vinc
[14] = Table 2, trypan blue, 24 h, M ± SD, read-out: LC50 Values of Compounds for Cell Line, HL-60
[15] = supplement Table 4S, M±SD, read-out: LC50 values of compounds for cell line, HL-60
[16] = 24 h, read-out: LC50 Values of Compounds for Cell Line, Jurkat
[17] = read-out: LC50 values of compounds for cell line, Jurkat
[18] = MCF7, 24 h, read-out: LC50 Values of Compounds for Cell Line, MCF-7
[19] = HCT-116, 24 h, read-out: LC50 Values of Compounds for Cell Line, HCT-116

T1 sequence (Q13547 whole entry): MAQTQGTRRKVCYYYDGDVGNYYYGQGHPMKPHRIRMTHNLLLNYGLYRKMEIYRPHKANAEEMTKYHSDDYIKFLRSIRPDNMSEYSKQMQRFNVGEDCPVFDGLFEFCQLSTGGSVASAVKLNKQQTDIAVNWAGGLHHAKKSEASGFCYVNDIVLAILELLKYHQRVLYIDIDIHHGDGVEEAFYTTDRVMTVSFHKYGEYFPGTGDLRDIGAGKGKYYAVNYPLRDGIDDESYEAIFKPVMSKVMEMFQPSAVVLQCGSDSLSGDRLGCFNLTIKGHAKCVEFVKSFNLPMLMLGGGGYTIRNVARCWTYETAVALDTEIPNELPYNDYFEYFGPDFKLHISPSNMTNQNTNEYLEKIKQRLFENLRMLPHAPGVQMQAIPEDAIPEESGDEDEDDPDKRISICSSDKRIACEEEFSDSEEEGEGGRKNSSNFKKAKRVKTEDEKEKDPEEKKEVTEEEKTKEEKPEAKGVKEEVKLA

Structure (SMILES) | IC50 [1] [µM] | IC50 [2] [µM] | CC50 [3, 10] [µM] | CC50 [3, 11] [µM] | CC50 [4, 12] [µM] | CC50 [4, 13] [µM] | CC50 [5, 14] [µM] | CC50 [5, 15] [µM] | cells in pre-G1 phase (apoptotic) [6] | CC50 [7, 16] [µM] | CC50 [7, 17] [µM] | CC50 [8, 18] [µM] | CC50 ([8]; MCF7, read-out: LC50 values of compounds for cell line, MCF-7) [µM] | CC50 [9, 19] [µM] | CC50 ([9]; HCT-116, read-out: LC50 values of compounds for cell line, HCT-116) [µM]
CN(C)c1nc2c(Br)c(Br)c(Br)c(Br)c2n1CCc1cn(CCC(=O)NO)nn1 [Compound 7c, N-Hydroxy-3-(4-(2-(4,5,6,7-tetrabromo-2-(dimethylamino)-1H-benzo[d]imidazol-1-yl)ethyl)-1H-1,2,3-triazol-1-yl)propanamide] | 13.3 | 12.5 | 18.6 ± 2.09 | 16.2 | 49.5 ± 9.47 | 17.6 | 24 ± 8.66 | 7.67 | increased insignificantly | 16.5 ± 2.33 | 10.7 | 27.8 ± 6.06 | 15.7 | 16.9 ± 3.9 | 4.22
O=C(NO)c1ccc(Cn2nc3c(Br)c(Br)c(Br)c(Br)c3n2)cc1 [Compound 15a, N-Hydroxy-4-((tetrabromo-2H-benzo[d][1,2,3]triazol-2-yl)methyl)benzamide] | 8.5 | 15 | 32.4 ± 3.44 | > 30 | 36.6 ± 4.74 | > 30 | 34.4 ± 7.89 | > 30 | increased insignificantly | 43.6 ± 16.7 | > 30 | 13.7 ± 2.67 |  | 8.67 ± 1.02 | 
CN(C)c1nc2c(Br)c(Br)c(Br)c(Br)c2n1Cc1ccc(C(=O)NO)cc1 [Compound 19, N-Hydroxy-4-((4,5,6,7-tetrabromo-2-(dimethylamino)-1H-benzo[d]imidazol-1-yl)methyl)benzamide] | 9.45 | 7.15 | 32.3 ± 5.32 | > 30 | 21.7 ± 3.39 | 26.6 |  | > 30 | increased insignificantly | 24.9 ± 3.8 | 21.8 | 13.6 ± 0.78 |  | 11.3 ± 1.01 | 

— publication PMC7180456, “Multitarget Anticancer Agents Based on Histone Deacetylase and Protein Kinase CK2 Inhibitors” (Molecules, 2020)
